Laboratory results reported in patent publication US10314843B2, “Combinations for the treatment of neoplasms using quiescent cell targeting and inhibitors of mitosis” (Felicitex Therapeutics, Inc., priority 2016, dated 2019).

Columns and labels:
Type in all cases: cell-based
SW620 cells [1] = assay: CellTiter-Glo cell viability assay, SW620 cells; conditions: Homo sapiens, SW-620, SW620 cells
Text: (§1) The following cell lines were obtained from ATCC and cultured according to the ATCC recommendations: DMS273—small cell lung cancer cell line; H1975—non-small cell lung cancer cell line harboring L858R and T790M mutations in EGFR TK; A549—a non-small cell lung cancer cell line with wild type EGFR; LNCap—prostate cancer cell line; SW620—colon cancer cell line; MiaPaCa2—pancreatic cancer cell line; PANC1—pancreatic cancer cell line; OVCAR3—ovarian cancer cell line; SK-OV-3—ovarian cancer cell line.
(§2) For viability analysis, cells were seeded into 96-well plates at 2×10^3-6×10^3 cells/well; the plated number of cells depended on cell size and rate of proliferation aiming for approximately 50% confluency. After seeding, the cells were allowed to attach for 24 hours incubated at 37° C. in a humidified 5% CO2 atmosphere.
(§3) The treatments were performed using at least 6 different concentrations of a compound in 1:3 serial dilutions in DMSO such that the DMSO concentration in the cell medium was <1%. The cell cultures were incubated for an additional 96 hours in 5% CO2 incubator at 37° C. Treatments were performed in triplicate. Results were analyzed by CellTiter-Glo™ Luminescent Cell Viability Assay (Promega, cat. #G7571) according to the manufacturer's instructions using Spectra MAX Gemini Spectrophotometer (Molecular Devices).

DMS273 cells [2] = assay: CellTiter-Glo cell viability assay, DMS273 cells; conditions: Homo sapiens, DMS-273, DMS273 cells
Text: as §1, §2, §3

HCC827 cells = assay: CellTiter-Glo cell viability assay, HCC827 cells; conditions: Homo sapiens
Method: as §2, §3

A549 cells = assay: CellTiter-Glo cell viability assay, A549 cells; conditions: Homo sapiens
Text: as §1, §2, §3

SK-OV-3 cells = assay: CellTiter-Glo cell viability assay, SK-OV-3 cells; conditions: Homo sapiens, SK-OV-3, SK-OV-3 cells
Text: as §1, §2, §3

OVCAR3 cells = assay: CellTiter-Glo cell viability assay, OVCAR3 cells; conditions: Homo sapiens, OVCAR-3, OVCAR3 cells
Text: as §1, §2, §3

LNCap cells = assay: CellTiter-Glo cell viability assay, LNCap cells; conditions: Homo sapiens
Text: as §1, §2, §3

DMS273 cells [3] = assay: FACS cell cycle distribution (Acridine Orange), DMS273 cells; conditions: mitotic inhibitor alone, FBS+ media, 24 hours (2.7 nM paclitaxel; 1.1 nM vincristine; 8.1 nM vinorelbine)
Text: as §1
(§4) Cell cultures were seeded into 6-well plates at 3×10^5-6×10^5 cells/well; the plated number of cells depended on cell size and rate of proliferation, aiming for approximately 50% confluency. After seeding, the cells were allowed to attach for 24 hours while incubated at 37° C. in a humidified 5% CO2 atmosphere, and then treated with compounds for desired amount of time (usually 24 hours) incubating under same conditions. Then the cells were harvested by trypsinization, pooled with the floating cells, washed in PBS, and fixed in 70% ice-cold ethanol overnight. For Acridine Orange (AO) staining, fixed cells were washed once with ice-cold PBS, re-suspended in 100 μL PBS, followed by addition of 200 μL of permeabilizing solution and 600 μL AO staining solution. The measurements were performed with Guava easyCyte HT flow cytometer (EMD Millipore) using the blue laser for excitation at 488 nm, monitoring emission of the AO-DNA complex at 526 nm and AO-RNA complex at 650 nm. The complete protocol and composition of buffers are described in the literature (Darzynkiewicz Z, Juan G, and Srour E F (2004) Differential Staining of DNA and RNA (2004). Current Protocols in Cytometry, Chapter 7:Unit 7.3).

SW620 cells [4] = assay: FACS cell cycle distribution (Acridine Orange), SW620 cells; conditions: paclitaxel alone (2 nM), FBS+ media, 24 hours
Text: as §1, §4

H1975 cells = assay: CellTiter-Glo cell viability assay, H1975 cells; conditions: Homo sapiens, NCI-H1975, H1975 cells
Text: as §1, §2, §3

EC50 (SW620 cells [1]; Compound I-5 not present) [nM] | EC50 (SW620 cells [1]; Compound I-5 present at 2 μM) [nM] | EC50 (SW620 cells [1]; Compound I-5 present at 4 μM) [nM] | EC50 (HCC827 cells; Compound I-7 not present) [nM] | EC50 (A549 cells; Compound I-7 not present) [nM] | EC50 (A549 cells; Compound I-7 present at 2 μM) [nM] | EC50 (A549 cells; Compound I-7 present at 4 μM) [nM] | EC50 (SK-OV-3 cells; Compound I-7 not present) [nM] | EC50 (SK-OV-3 cells; Compound I-7 present at 2 μM) [nM] | EC50 (SK-OV-3 cells; Compound I-7 present at 4 μM) [nM] | EC50 (OVCAR3 cells; Compound I-7 not present) [nM] | EC50 (OVCAR3 cells; Compound I-7 present at 2 μM) [nM] | EC50 (OVCAR3 cells; Compound I-7 present at 4 μM) [nM] | EC50 (SK-OV-3 cells; Compound I-7 present at 8 μM) [nM] | EC50 (OVCAR3 cells; Compound I-7 present at 3 μM) [nM] | SMILES | EC50 (DMS273 cells [2]; Compound I-7 not present) [nM] | EC50 (DMS273 cells [2]; Compound I-7 present at 2 μM) [nM] | EC50 (DMS273 cells [2]; Compound I-7 present at 4 μM) [nM] | pharmacological quiescence (fraction of cells in G0 phase) (DMS273 cells [3]) | EC50 (DMS273 cells [2]; Compound I-5 not present) [nM] | further results
2.85 | 0.69 | < 0.015 | 1.8 | 1.4 | 0.6 | 0.1 | 2.5 | 1.5 | 0.3 | 0.85 | 0.52 | < 0.04 | – | – | CC(=O)O[C@@]12CO[C@@H]1C[C@H](O)[C@@]1(C)C(=O)[C@H](O)C3=C(C)[C@@H](OC(=O)[C@H](O)[C@@H](NC(=O)OC(C)(C)C)c4ccccc4)C[C@@](O)([C@@H](OC(=O)c4ccccc4)[C@H]21)C3(C)C [docetaxel] | 0.64 | 0.38 | 0.14 | – | – | EC50 (HCC827 cells; Compound I-7 present at 2 μM): 0.6 nM; EC50 (HCC827 cells; Compound I-7 present at 4 μM): 0.03 nM
8.1 | 2.3 | 0.2 | 4.2 | 4.8 | – | – | 9.7 | 9.4 | 4.8 | 3.3 | – | – | 4.7 | 2.8 | CC(=O)O[C@H]1C(=O)[C@@]2(C)[C@H]([C@H](OC(=O)c3ccccc3)[C@]3(O)C[C@H](OC(=O)[C@H](O)[C@@H](NC(=O)c4ccccc4)c4ccccc4)C(C)=C1C3(C)C)[C@]1(OC(C)=O)CO[C@@H]1C[C@@H]2O [paclitaxel] | 2.7 | 1.9 | 0.9 | does not result in pharmacological quiescence | – | EC50 (LNCap cells; Compound I-5 not present): 3.2 nM; EC50 (LNCap cells; Compound I-5 present at 2 μM): 2.1 nM; EC50 (LNCap cells; Compound I-5 present at 4 μM): 0.9 nM; EC50 (HCC827 cells; Compound I-7 present at 3 μM): 2.5 nM; EC50 (HCC827 cells; Compound I-7 present at 6 μM): 0.6 nM; EC50 (A549 cells; Compound I-7 present at 3 μM): 2.5 nM; EC50 (A549 cells; Compound I-7 present at 6 μM): 0.7 nM; EC50 (SK-OV-3 cells; Compound I-7 present at 10 μM): 5.2 nM; EC50 (OVCAR3 cells; Compound I-7 present at 6 μM): 1.7 nM; pharmacological quiescence (fraction of cells in G0 phase) (SW620 cells [4]): does not result in pharmacological quiescence
– | – | – | – | – | – | – | 8.7 | – | 2.1 | 1.2 | 0.8 | 0.1 | 1 | – | CC[C@]1(O)C[C@H]2CN(CCc3c([nH]c4ccccc34)[C@@](C(=O)OC)(c3cc4c(cc3OC)N(C=O)[C@H]3[C@@](O)(C(=O)OC)[C@H](OC(C)=O)[C@]5(CC)C=CCN6CC[C@]43[C@@H]65)C2)C1 [vincristine] | – | – | – | does not result in pharmacological quiescence | 1.1 | EC50 (DMS273 cells [2]; Compound I-5 present at 2 μM): 0.4 nM; EC50 (DMS273 cells [2]; Compound I-5 present at 4 μM): < 0.04 nM; EC50 (H1975 cells; Compound I-5 not present): 1.5 nM; EC50 (H1975 cells; Compound I-5 present at 2 μM): 0.85 nM; EC50 (H1975 cells; Compound I-5 present at 4 μM): 0.35 nM
– | – | – | – | 27 | 16 | 6 | 15.1 | 10.1 | 4.7 | 2.4 | – | – | – | 0.1 | CCC1=C[C@@H]2CN(C1)Cc1c([nH]c3ccccc13)[C@@](C(=O)OC)(c1cc3c(cc1OC)N(C)[C@H]1[C@@](O)(C(=O)OC)[C@H](OC(C)=O)[C@]4(CC)C=CCN5CC[C@]31[C@@H]54)C2 [vinorelbine] | – | – | – | does not result in pharmacological quiescence | 1.1 | EC50 (DMS273 cells [2]; Compound I-5 present at 2 μM): 0.4 nM; EC50 (DMS273 cells [2]; Compound I-5 present at 4 μM): < 0.04 nM; EC50 (OVCAR3 cells; Compound I-7 present at 1 μM): 2.4 nM; EC50 (H1975 cells; Compound I-5 not present): 9.5 nM; EC50 (H1975 cells; Compound I-5 present at 2 μM): 5.2 nM; EC50 (H1975 cells; Compound I-5 present at 4 μM): 2.1 nM
